Assay results as given in paper PMC12373846, “Hemoglobin as a pseudoperoxidase and drug target for oxidative stress-related diseases” (Signal Transduction and Targeted Therapy, 2025).

How the values were obtained:
[1] = tested on: CAT; experiment: ROS-Glo H2O2 assay with CAT; assay type: biochemical
Procedure: Hb (Sigma‒Aldrich, H7379), H2O2 (Sigma‒Aldrich, H1009), and Amplex Red reagents (Invitrogen, A12222) were obtained for the study. A 4 μM H2O2 solution was prepared in 50 mM sodium phosphate buffer (pH 7.2). Then, 49 μl of this mixture was mixed with 1 μl of the test compound in DMSO or distilled water. The mixture was combined with an assay mixture of Amplex Red reagent (20 mM stock to 0.1 mM) and HRP (200 U/ml stock to 0.2 U/ml) and added to the wells at 50 μl/well. After a 60-min incubation at 37 °C, resorufin production was quantified via a microplate fluorescence reader (SpectraMax iD5, Molecular Devices) at ex/em = 535/580 nm. The H2O2-decomposing activity was estimated via the following equation: (sample fluorescence-blank fluorescence)/(control […]-blank fluorescence) × 100. For the ROS-Glo assay, the H2O2 substrate solution and ROS-Glo detection solution were prepared according to the manufacturer’s instructions. 10 μM H2O2 and drugs were prepared as in the Amplex Red assay, with HRP, Hb, CAT, or GPx added as needed. […] Luminescence was measured via iD5 microplate readers. The H2O2-decomposing activity was estimated via the following equation: (sample luminescence-blank luminescence)/(control luminescence-blank luminescence) × 100. The U/ml was calculated on the basis of the amount of H2O2 reduced by Hb during the reaction, using μg/ml and U/mg.

[2] = target: T1, mouse hemoglobin (mHb) (Mus musculus, UniProt P02088); experiment: ROS-Glo H2O2 assay with mouse hemoglobin; assay type: biochemical; details: Fig. S1f; read-out: EC50, H2O2 decomposition with mouse hemoglobin (mHb)
T1 construct: Mouse hemoglobin (Hb) purified from erythrocytes; purchased CUSABIO CSB-NP004901m; host or cells: erythrocytes
Procedure: Mouse hemoglobin (Hb) purified from erythrocytes (Cat. CSB-NP004901m, CUSABIO) was used for the ROS-Glo H2O2 assay. KDS12025 was added in a dose-dependent manner to a reaction mixture containing mouse Hb and H2O2. The assay was performed according to the manufacturer’s protocol (Promega), and luminescence was measured using an iD5 plate reader. H2O2-decomposing activity was calculated as the percentage reduction in luminescence relative to controls. Assays with human Hb were conducted in parallel for comparison.

[3] = tested on: SOD1^G93A mice; experiment: Immunohistochemistry of ventral spinal cord, SOD1^G93A mice; assay type: in vivo, mouse; details: SOD1+KDS
Procedure: SOD1^G93A mice (B6SJL-Tg(SOD1*G93A)1Gur/J) were purchased from Jackson Laboratory (strain number 002726) and used in the ALS mouse model. The mice were divided into four groups: Control, SOD1, and KDS12025 (1 and 10 mg/kg/day). Starting at 10 weeks of age, KDS12025 was administered via ad libitum drinking water at doses of 1 mg/kg/day and 10 mg/kg/day. The control and SOD1 groups received standard drinking water. Motor function was evaluated weekly via the rotarod performance test, and the ratio of running time was normalized to that of littermate controls to assess motor coordination and endurance over time. Survival of the mice was monitored for up to 24 weeks, and median survival times were calculated for each group.
The mice were deeply anesthetized with 2% isoflurane and positioned on the operating table. […] A series of fluorescence images were obtained with an LSM900 (Zeiss, Germany) confocal microscope or Lattice SIM Elyra 7 (Zeiss, Germany). […] This analysis quantified the intersections of GFAP-labeled processes within each circle, calculating the ramification index and ending radius, enabling the evaluation of astrocytic hypertrophy and morphological changes, as previously described.[78] In the focal GiD mouse model, NeuN-positive CA1 pyramidal neurons were quantified within a 50 × 50 μm^2 region via ImageJ to determine the number of CA1 pyramidal neurons.

T1 sequence (P02088 2-147 limits assumed): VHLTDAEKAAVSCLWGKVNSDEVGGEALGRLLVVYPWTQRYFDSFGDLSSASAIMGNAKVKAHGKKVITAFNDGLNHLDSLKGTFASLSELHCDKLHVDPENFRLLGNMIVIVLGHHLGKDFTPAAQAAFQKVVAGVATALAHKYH
T1 sequence (P01942 2-142 partner limits assumed): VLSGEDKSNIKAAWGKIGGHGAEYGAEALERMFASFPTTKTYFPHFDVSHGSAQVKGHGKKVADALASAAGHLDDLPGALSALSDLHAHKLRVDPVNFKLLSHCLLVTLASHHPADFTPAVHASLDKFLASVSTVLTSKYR

SMILES	effect on CAT activity [1]	EC50 [2] [nM]	Hbβ in GFAP-positive astrocytes, ventral spinal cord ([3]; Fig. S15b)	Hbβ in NeuN-positive neurons, ventral spinal cord ([3]; Fig. S15d)
O=C(O)c1cc(NCCc2ccc(C(F)(F)F)cc2)ccc1O [HTPEB, 2-hydroxy-5-[2-(4-trifluoromethyl-phenyl)-ethylamino]-benzoic acid, reference compound]	did not increase			
CNc1ccc(NCCc2ccccc2OC)cc1.Cl [KDS12025, N^1-(2-methoxyphenethyl)-N^4-methylbenzene-1,4-diamine hydrochloride salt]		24	Control (2194±76.5, n=25), SOD1 (1209±54.8, n=31), SOD1+KDS (2557±108.6, n=37) One-way ANOVA with Tukey's multiple comparisons test, F(2,90) = 65.01, p < 0.001 Control vs. SOD1, p < 0.001; Control vs. SOD1+KDS, p = 0.02; SOD1 vs. SOD1+KDS, p < 0.001	Control (1961±96.1, n=22), SOD1 (1183±89.9, n=19), SOD1+KDS (2326±85.3, n=17) One-way ANOVA with Tukey's multiple comparisons test, F(2,55) = 38.14, p < 0.001 Control vs. SOD1, p < 0.001; Control vs. SOD1+KDS, p = 0.02; SOD1 vs. SOD1+KDS, p < 0.001
